# PMC8691750, “Euphorbia Factor L2 ameliorates the Progression of K/BxN Serum-Induced Arthritis by Blocking TLR7 Mediated IRAK4/IKKβ/IRF5 and NF-kB Signaling Pathways” (Frontiers in Pharmacology, 2021)
# Several values for one entry are separate records, joined by “and”; a condition that tells them apart may be missing. Equal entries are not always repeated.
# Tested on: TLR signalling pathway genes
# Assay: Toll-like Receptor Pathway PCR array of ankles
# Type: in vivo, C57BL/6 mice
# Settings: for S40/SIA (fold change) / log2(fold change) S40/SIA: S40 group vs SIA group
# Protocol: Total RNA was isolated from the right ankles using the TRIzol Reagent (Invitrogen) and purified with RNeasy Mini Kit and RNase-Free DNase Set (Qiagen). RNA quality was determined using a spectrophotometer and was reversely transcribed using Wcgene® mRNA cDNA kit. The complementary DNA was used on the Toll-like Receptor Pathway PCR Array plate (Wcgene® biotech, China).
smiles,measurement,setting,value
"C=C1C(OC(=O)c2ccccc2)CC2C(C=C(C)C(=O)C3(OC(C)=O)CC(C)C(OC(=O)c4ccccc4)C3C1OC(C)=O)C2(C)C (stereo not shown) [EFL2, Euphorbia factor L2]",S40/SIA (fold change),Irak2 mRNA,0.4814
same,log2(fold change) S40/SIA,Irak2 mRNA,-1.055
same,"fold-GAPDH, Irak3","Irak3 mRNA in ankles of STA mice, relative to GAPDH, one value per animal (samples S401-S405)",0.01639 and 0.02176 and 0.01462 and 0.00868
same,S40/SIA (fold change),Irak3 mRNA,0.4891
same,log2(fold change) S40/SIA,Irak3 mRNA,-1.032
same,"fold-GAPDH, Irak4","Irak4 mRNA in ankles of STA mice, relative to GAPDH, one value per animal (samples S401-S405)",0.005444 and 0.007871 and 0.004771 and 0.003248
same,"fold-GAPDH, Irf1","Irf1 mRNA in ankles of STA mice, relative to GAPDH, one value per animal (samples S401-S405)",0.006938 and 0.008232
same,S40/SIA (fold change),Irf1 mRNA,0.3319
same,log2(fold change) S40/SIA,Irf1 mRNA,-1.591
same,"fold-GAPDH, Irf3","Irf3 mRNA in ankles of STA mice, relative to GAPDH, one value per animal (samples S401-S405)",0.01116 and 0.01143 and 0.004857
same,S40/SIA (fold change),Irf3 mRNA,0.3241
same,log2(fold change) S40/SIA,Irf3 mRNA,-1.626
same,"fold-GAPDH, Jun","Jun mRNA in ankles of STA mice, relative to GAPDH, one value per animal (samples S401-S405)",0.04078 and 0.0443 and 0.03642 and 0.03036
same,S40/SIA (fold change),Jun mRNA,0.3678
same,log2(fold change) S40/SIA,Jun mRNA,-1.443
same,"fold-GAPDH, Ly86","Ly86 mRNA in ankles of STA mice, relative to GAPDH, one value per animal (samples S401-S405)",0.008619 and 0.01651 and 0.01407 and 0.001011
same,"fold-GAPDH, Ly96","Ly96 mRNA in ankles of STA mice, relative to GAPDH, one value per animal (samples S401-S405)",0.00648 and 0.008818 and 0.008037 and 0.003545
same,S40/SIA (fold change),Ly96 mRNA,0.3878
same,log2(fold change) S40/SIA,Ly96 mRNA,-1.367
same,"fold-GAPDH, Map2k3","Map2k3 mRNA in ankles of STA mice, relative to GAPDH, one value per animal (samples S401-S405)",0.0383 and 0.04062 and 0.04366 and 0.0009844
same,"fold-GAPDH, Map2k4","Map2k4 mRNA in ankles of STA mice, relative to GAPDH, one value per animal (samples S401-S405)",0.006054 and 0.009032 and 0.01171 and 0.005161
same,S40/SIA (fold change),Map2k4 mRNA,0.8651
same,log2(fold change) S40/SIA,Map2k4 mRNA,-0.209
same,"fold-GAPDH, Map3k1","Map3k1 mRNA in ankles of STA mice, relative to GAPDH, one value per animal (samples S401-S405)",0.006062 and 0.005781 and 0.1236
same,"fold-GAPDH, Map3k7","Map3k7 mRNA in ankles of STA mice, relative to GAPDH, one value per animal (samples S401-S405)",0.01592 and 0.021 and 0.01646 and 0.01133
same,"fold-GAPDH, Mapk8ip3","Mapk8ip3 mRNA in ankles of STA mice, relative to GAPDH, one value per animal (samples S401-S405)",0.001064 and 0.001038
same,"fold-GAPDH, Mapk8","Mapk8 mRNA in ankles of STA mice, relative to GAPDH, one value per animal (samples S401-S405)",0.01945 and 0.02479 and 0.0101
same,"fold-GAPDH, Mapk9","Mapk9 mRNA in ankles of STA mice, relative to GAPDH, one value per animal (samples S401-S405)",0.001275 and 0.001267 and 0.00173 and 0.000754
same,"fold-GAPDH, Muc13","Muc13 mRNA in ankles of STA mice, relative to GAPDH, one value per animal (samples S401-S405)",6.559e-5 and 0.0002674 and 0.000223 and 0.0001076
same,"fold-GAPDH, Myd88","Myd88 mRNA in ankles of STA mice, relative to GAPDH, one value per animal (samples S401-S405)",0.009066 and 0.0089 and 0.006533 and 0.004478
same,S40/SIA (fold change),Myd88 mRNA,0.1447
same,log2(fold change) S40/SIA,Myd88 mRNA,-2.789
same,"fold-GAPDH, Nfkb1","Nfkb1 mRNA in ankles of STA mice, relative to GAPDH, one value per animal (samples S401-S405)",0.02137 and 0.03037 and 0.044 and 0.01259
same,"fold-GAPDH, Nfkb2","Nfkb2 mRNA in ankles of STA mice, relative to GAPDH, one value per animal (samples S401-S405)",0.005983 and 0.008129 and 0.004372 and 0.004079
same,S40/SIA (fold change),Nfkb2 mRNA,0.2395
same,log2(fold change) S40/SIA,Nfkb2 mRNA,-2.062
same,"fold-GAPDH, Nfkbia","Nfkbia mRNA in ankles of STA mice, relative to GAPDH, one value per animal (samples S401-S405)",0.03064 and 0.03111 and 0.02056 and 0.01675
same,S40/SIA (fold change),Nfkbia mRNA,0.2445
same,log2(fold change) S40/SIA,Nfkbia mRNA,-2.032
same,"fold-GAPDH, Nfkbib","Nfkbib mRNA in ankles of STA mice, relative to GAPDH, one value per animal (samples S401-S405)",0.00388 and 0.005737 and 0.004539 and 0.002397
same,S40/SIA (fold change),Nfkbib mRNA,0.4073
same,log2(fold change) S40/SIA,Nfkbib mRNA,-1.2959
same,"fold-GAPDH, Nfrkb","Nfrkb mRNA in ankles of STA mice, relative to GAPDH, one value per animal (samples S401-S405)",0.003341 and 0.001769 and 0.003291
same,"fold-GAPDH, Nr2c2","Nr2c2 mRNA in ankles of STA mice, relative to GAPDH, one value per animal (samples S401-S405)",0.008167 and 0.009954 and 0.006912 and 0.004742
same,S40/SIA (fold change),Nr2c2 mRNA,0.5521
same,log2(fold change) S40/SIA,Nr2c2 mRNA,-0.8571
same,"fold-GAPDH, Peli1","Peli1 mRNA in ankles of STA mice, relative to GAPDH, one value per animal (samples S401-S405)",0.01623 and 0.02035 and 0.01296 and 0.0006428
same,S40/SIA (fold change),Peli1 mRNA,0.462
same,log2(fold change) S40/SIA,Peli1 mRNA,-1.114
same,"fold-GAPDH, Pglyrp1","Pglyrp1 mRNA in ankles of STA mice, relative to GAPDH, one value per animal (samples S401-S405)",0.001422 and 0.0004159 and 0.002383
same,S40/SIA (fold change),Pglyrp1 mRNA,0.2161
same,log2(fold change) S40/SIA,Pglyrp1 mRNA,-2.21
same,"fold-GAPDH, Ppara","Ppara mRNA in ankles of STA mice, relative to GAPDH, one value per animal (samples S401-S405)",0.001398 and 0.003006 and 0.002272 and 0.0004292
same,"fold-GAPDH, Ptgs2","Ptgs2 mRNA in ankles of STA mice, relative to GAPDH, one value per animal (samples S401-S405)",0.001434 and 0.000397 and 0.0002674 and 0.0003018
same,S40/SIA (fold change),Ptgs2 mRNA,0.03786
same,log2(fold change) S40/SIA,Ptgs2 mRNA,-4.723
same,S40/SIA (fold change),Rel mRNA,0.2762
same,log2(fold change) S40/SIA,Rel mRNA,-1.8562
same,S40/SIA (fold change),Ticam1 mRNA,0.59
same,log2(fold change) S40/SIA,Ticam1 mRNA,-0.7611
same,S40/SIA (fold change),Tlr2 mRNA,0.1682
same,log2(fold change) S40/SIA,Tlr2 mRNA,-2.571
same,S40/SIA (fold change),Tlr3 mRNA,0.7859
same,log2(fold change) S40/SIA,Tlr3 mRNA,-0.3477
same,S40/SIA (fold change),Tlr4 mRNA,0.5705
same,log2(fold change) S40/SIA,Tlr4 mRNA,-0.8096
same,S40/SIA (fold change),Tlr5 mRNA,0.188
same,log2(fold change) S40/SIA,Tlr5 mRNA,-2.411
same,S40/SIA (fold change),Tlr7 mRNA,0.09461
same,log2(fold change) S40/SIA,Tlr7 mRNA,-3.402
